Reference: PubChem BioAssay AID1963873 (Molecular Pharmacology Branch, DTP, NCI, 2024)

Test system: 276233-004-R-J1-PDC KRAS spheroids with HUVEC/MSC, viability
Assay: Anticancer human tumor 276233-004-R-J1-PDC patient-derived colon adenocarcinoma cell line growth inhibition [KRAS2]
Details: for IC50: curve of first compound; for viability, T/C: stronger effect = lower value
Summary of the method: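 Combination screen of spheroid viability in tumor-cell co-cultures with endothelial (HUVEC) and mesenchymal stem cell stroma. Each agent was tested in half-log dilutions, topping at clinical Cmax or at 10 microM without a known Cmax.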

[1] = second compound 0.1 µM, first compound 0.0316 µM
[2] = second compound 0.1 µM, first compound 0.1 µM
[3] = second compound 0.1 µM, first compound 0.316 µM
[4] = second compound 0.1 µM, first compound 1 µM
[5] = second compound 0.1 µM, first compound 3.16 µM
[6] = second compound 0.1 µM, first compound 10 µM
[7] = second compound 0.316 µM, first compound 0.0316 µM
[8] = second compound 0.316 µM, first compound 0.1 µM
[9] = second compound 0.316 µM, first compound 0.316 µM
[10] = second compound 0.316 µM, first compound 1 µM
[11] = second compound 0.316 µM, first compound 3.16 µM
[12] = second compound 0.316 µM, first compound 10 µM
[13] = second compound 1 µM, first compound 0.0316 µM
[14] = second compound 1 µM, first compound 0.1 µM
[15] = second compound 1 µM, first compound 0.316 µM
[16] = second compound 1 µM, first compound 1 µM
[17] = second compound 1 µM, first compound 3.16 µM
[18] = second compound 1 µM, first compound 10 µM
[19] = second compound 3.16 µM, first compound 0.0316 µM
[20] = second compound 3.16 µM, first compound 0.1 µM
[21] = second compound 3.16 µM, first compound 0.316 µM
[22] = second compound 3.16 µM, first compound 1 µM
[23] = second compound 3.16 µM, first compound 3.16 µM
[24] = second compound 3.16 µM, first compound 10 µM
[25] = second compound 10 µM, first compound 0.0316 µM
[26] = second compound 10 µM, first compound 0.1 µM
[27] = second compound 10 µM, first compound 0.316 µM
[28] = second compound 10 µM, first compound 1 µM
[29] = second compound 10 µM, first compound 3.16 µM
[30] = second compound 10 µM, first compound 10 µM
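Note: cells exposed to agents for seven days before viability read.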
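Throughout, for viability, T/C: 100% = DMSO vehicle control wells and lower values mean fewer viable cells.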

Q: Which IC50 (second compound 0.1 µM) does the source give for `COc1cc2nccc(Oc3ccc(NC(=O)C4(C(=O)Nc5ccc(F)cc5)CC4)cc3)c2cc1OC` + CC1OCC2(CCN(c3cnc(Sc4ccnc(N)c4Cl)c(N)n3)CC2)C1N here?
A: > 10 µM

Q: What about the IC50 (second compound 0.316 µM) of the same compound?
A: > 10 µM

Q: And the IC50 (second compound 1 µM)?
A: > 10 µM

Q: What about the IC50 (second compound 3.16 µM) of the same compound?
A: > 10 µM

Q: What about the IC50 (second compound 10 µM) of the same compound?
A: 3.58 µM

Q: And the viability, T/C [1]?
A: 78.9%

Q: What about the viability, T/C [2] of the same compound?
A: 77.1%

Q: And the viability, T/C [3]?
A: 85.4%

Q: What about the viability, T/C [4] of the same compound?
A: 75.1%

Q: And the viability, T/C [5]?
A: 80%

Q: What about the viability, T/C [6] of the same compound?
A: 77.6%

Q: And the viability, T/C [7]?
A: 73.5%

Q: What about the viability, T/C [8] of the same compound?
A: 64.7%

Q: What about the viability, T/C [9] of the same compound?
A: 69.5%

Q: What about the viability, T/C [10] of the same compound?
A: 72.7%

Q: And the viability, T/C [11]?
A: 81.9%

Q: What about the viability, T/C [12] of the same compound?
A: 59.6%

Q: What about the viability, T/C [13] of the same compound?
A: 65%

Q: What about the viability, T/C [14] of the same compound?
A: 67.4%

Q: And the viability, T/C [15]?
A: 60.7%

Q: What about the viability, T/C [16] of the same compound?
A: 75.7%

Q: And the viability, T/C [17]?
A: 70.9%

Q: What about the viability, T/C [18] of the same compound?
A: 52.7%

Q: And the viability, T/C [19]?
A: 55.5%

Q: And the viability, T/C [20]?
A: 67.9%

Q: And the viability, T/C [21]?
A: 55.1%

Q: And the viability, T/C [22]?
A: 61.7%

Q: What about the viability, T/C [23] of the same compound?
A: 72.2%

Q: What about the viability, T/C [24] of the same compound?
A: 44%

Q: And the viability, T/C [25]?
A: 71.8%

Q: And the viability, T/C [26]?
A: 59.7%

Q: What about the viability, T/C [27] of the same compound?
A: 56.7%

Q: What about the viability, T/C [28] of the same compound?
A: 53%

Q: What about the viability, T/C [29] of the same compound?
A: 58.2%

Q: And the viability, T/C [30]?
A: 42.6%

Q: How did the IC50 (second compound 0.1 µM) turn out when `CC(C)n1nc(-c2ccc3oc(N)nc3c2)c2c(N)ncnc21` + C=CC(=O)N1CCN(c2nc(=O)n(-c3c(C)ccnc3C(C)C)c3nc(-c4c(O)cccc4F)c(F)cc23)C(C)C1 was run?
A: > 0.1 µM

Q: What about the IC50 (second compound 0.316 µM) of the same compound?
A: 0.0271 µM

Q: What about the IC50 (second compound 1 µM) of the same compound?
A: 0.0295 µM

Q: What about the IC50 (second compound 3.16 µM) of the same compound?
A: > 0.1 µM

Q: And the IC50 (second compound 10 µM)?
A: > 0.1 µM

Q: And the viability, T/C (second compound 0.1 µM, first compound 0.000316 µM)?
A: 88.4%

Q: And the viability, T/C (second compound 0.1 µM, first compound 0.001 µM)?
A: 91.7%

Q: What about the viability, T/C (second compound 0.1 µM, first compound 0.00316 µM) of the same compound?
A: 64.8%

Q: And the viability, T/C (second compound 0.1 µM, first compound 0.01 µM)?
A: 63.4%

Q: And the viability, T/C [1]?
A: 50.8%

Q: And the viability, T/C [2]?
A: 56.2%

Q: And the viability, T/C (second compound 0.316 µM, first compound 0.000316 µM)?
A: 105%

Q: What about the viability, T/C (second compound 0.316 µM, first compound 0.001 µM) of the same compound?
A: 94.3%

Q: What about the viability, T/C (second compound 0.316 µM, first compound 0.00316 µM) of the same compound?
A: 76.6%

Q: What about the viability, T/C (second compound 0.316 µM, first compound 0.01 µM) of the same compound?
A: 57.2%

Q: What about the viability, T/C [7] of the same compound?
A: 45.4%

Q: What about the viability, T/C [8] of the same compound?
A: 49.8%

Q: What about the viability, T/C (second compound 1 µM, first compound 0.000316 µM) of the same compound?
A: 94.4%

Q: What about the viability, T/C (second compound 1 µM, first compound 0.001 µM) of the same compound?
A: 86.8%

Q: What about the viability, T/C (second compound 1 µM, first compound 0.00316 µM) of the same compound?
A: 105%

Q: And the viability, T/C (second compound 1 µM, first compound 0.01 µM)?
A: 64.2%

Q: And the viability, T/C [13]?
A: 48.4%

Q: What about the viability, T/C [14] of the same compound?
A: 49.7%

Q: And the viability, T/C (second compound 3.16 µM, first compound 0.000316 µM)?
A: 87%

Q: What about the viability, T/C (second compound 3.16 µM, first compound 0.001 µM) of the same compound?
A: 80.4%

Q: And the viability, T/C (second compound 3.16 µM, first compound 0.00316 µM)?
A: 75.8%

Q: And the viability, T/C (second compound 3.16 µM, first compound 0.01 µM)?
A: 59.2%

Q: What about the viability, T/C [19] of the same compound?
A: 51%

Q: What about the viability, T/C [20] of the same compound?
A: 51.5%

Q: What about the viability, T/C (second compound 10 µM, first compound 0.000316 µM) of the same compound?
A: 88.2%

Q: What about the viability, T/C (second compound 10 µM, first compound 0.001 µM) of the same compound?
A: 84.9%

Q: What about the viability, T/C (second compound 10 µM, first compound 0.00316 µM) of the same compound?
A: 67.8%

Q: What about the viability, T/C (second compound 10 µM, first compound 0.01 µM) of the same compound?
A: 72%

Q: And the viability, T/C [25]?
A: 54.9%

Q: What about the viability, T/C [26] of the same compound?
A: 58%

Q: `CC1OCC2(CCN(c3cnc(Sc4ccnc(N)c4Cl)c(N)n3)CC2)C1N` (stereo not given) + C=CC(=O)N1CCN(c2nc(=O)n(-c3c(C)ccnc3C(C)C)c3nc(-c4c(O)cccc4F)c(F)cc23)C(C)C1 was tested. Which IC50 (second compound 0.1 µM) did it give?
A: > 10 µM

Q: What about the IC50 (second compound 0.316 µM) of the same compound?
A: > 10 µM

Q: And the IC50 (second compound 1 µM)?
A: > 10 µM

Q: What about the IC50 (second compound 3.16 µM) of the same compound?
A: > 10 µM

Q: What about the IC50 (second compound 10 µM) of the same compound?
A: > 10 µM

Q: What about the viability, T/C [1] of the same compound?
A: 93.7%

Q: And the viability, T/C [2]?
A: 85.8%

Q: And the viability, T/C [3]?
A: 82.3%

Q: And the viability, T/C [4]?
A: 83.7%

Q: What about the viability, T/C [5] of the same compound?
A: 71.6%

Q: And the viability, T/C [6]?
A: 69.9%

Q: What about the viability, T/C [7] of the same compound?
A: 88.7%

Q: And the viability, T/C [8]?
A: 103%

Q: What about the viability, T/C [9] of the same compound?
A: 81.9%

Q: And the viability, T/C [10]?
A: 85.9%

Q: What about the viability, T/C [11] of the same compound?
A: 67.2%

Q: And the viability, T/C [12]?
A: 68%

Q: What about the viability, T/C [13] of the same compound?
A: 94.7%

Q: And the viability, T/C [14]?
A: 97.7%

Q: What about the viability, T/C [15] of the same compound?
A: 76.2%

Q: What about the viability, T/C [16] of the same compound?
A: 87.4%

Q: What about the viability, T/C [17] of the same compound?
A: 74.2%

Q: And the viability, T/C [18]?
A: 55.8%

Q: And the viability, T/C [19]?
A: 98.6%

Q: And the viability, T/C [20]?
A: 96.4%

Q: What about the viability, T/C [21] of the same compound?
A: 88.3%

Q: What about the viability, T/C [22] of the same compound?
A: 81.8%

Q: And the viability, T/C [23]?
A: 63.1%

Q: And the viability, T/C [24]?
A: 58%

Q: What about the viability, T/C [25] of the same compound?
A: 78.4%

Q: What about the viability, T/C [26] of the same compound?
A: 82.4%

Q: What about the viability, T/C [27] of the same compound?
A: 63.9%

Q: What about the viability, T/C [28] of the same compound?
A: 58.3%

Q: And the viability, T/C [29]?
A: 68.4%

Q: And the viability, T/C [30]?
A: 71.8%
